Data from the supplement of paper PMC10307832.

Assays:
Experiment in all cases: relative viability (nuclei count vs DMSO), 5 days (fraction); higher = more cells survive
[1] = test system: NCI-H1666
Outline: (§1)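 Nuclei were stained with Hoechst during a one-step fixation (final 0.05% Triton X-100, 1% formaldehyde, 1 ug/ml Hoechst) carried out 5 days after dosing, then counted on 4× images. The cells, lung cancer lines in 1536-well plates, had been dosed by pin tool the day after seeding with one drug alone or a fixed anchor-drug dose plus five library-drug doses (not always all listed) in √10 steps. Relative viability is the nuclei count in treated wells divided by that in vehicle wells, and each value is the median of duplicate plates.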

[2] = test system: LU99A
Outline: as §1

[3] = test system: NCI-H2085
Outline: as §1

[4] = test system: NCI-H2009
Outline: as §1

[5] = test system: A-427
Outline: as §1

[6] = test system: NCI-H1944
Outline: as §1

[7] = test system: HCC-78
Outline: as §1

[8] = test system: UMC-11
Outline: as §1

[9] = test system: LXF-289
Outline: as §1

[10] = test system: SW 900
Outline: as §1

[11] = test system: NCI-H1915
Outline: as §1

[12] = test system: LC-2-ad
Outline: as §1

[13] = test system: NCI-H460
Outline: as §1

[14] = test system: NCI-H1793
Outline: as §1

[15] = test system: EPLC-272H
Outline: as §1

[16] = test system: HOP-62
Outline: as §1

[17] = test system: NCI-H358
Outline: as §1

[18] = test system: COR-L 105
Outline: as §1

[19] = test system: HCC-366
Outline: as §1

[20] = test system: SK-LU-1
Outline: as §1

[21] = test system: NCI-H2170
Outline: as §1

`O=c1cc(N2CCOCC2)oc2c(-c3cccc4c3sc3ccccc34)cccc12` + O=C(CCCCCCC(=O)Nc1ccccc1)NO [Vorinostat] (partner 1 µM) gave a relative viability ([1]; first compound 0.01 µM) of 0.985, a relative viability ([1]; first compound 0.03162 µM) of 1.04 and a relative viability ([1]; first compound 0.1 µM) of 1.19. The relative viability ([1]; first compound 0.3162 µM) was 1.03, the relative viability ([1]; first compound 1 µM) was 1.04 and the relative viability ([2]; first compound 0.01 µM) was 0.489. It also gave a relative viability ([2]; first compound 0.03162 µM) of 0.491, a relative viability ([2]; first compound 0.1 µM) of 0.446 and a relative viability ([2]; first compound 0.3162 µM) of 0.512. For the same compound, the relative viability ([2]; first compound 1 µM) was 0.491, the relative viability ([3]; first compound 0.01 µM) was 0.779 and the relative viability ([3]; first compound 0.03162 µM) was 0.783. The relative viability ([3]; first compound 0.1 µM) was 0.755, the relative viability ([3]; first compound 0.3162 µM) was 0.788 and the relative viability ([3]; first compound 1 µM) was 0.753. For the same compound, the relative viability ([4]; first compound 0.01 µM) was 0.715, the relative viability ([4]; first compound 0.03162 µM) was 0.727 and the relative viability ([4]; first compound 0.1 µM) was 0.696. It also gave a relative viability ([4]; first compound 0.3162 µM) of 0.761, a relative viability ([4]; first compound 1 µM) of 0.7 and a relative viability ([5]; first compound 0.01 µM) of 0.844. For the same compound, the relative viability ([5]; first compound 0.03162 µM) was 0.95, the relative viability ([5]; first compound 0.1 µM) was 0.843 and the relative viability ([5]; first compound 0.3162 µM) was 0.82. For the same compound, the relative viability ([5]; first compound 1 µM) was 0.86, the relative viability ([6]; first compound 0.01 µM) was 0.529 and the relative viability ([6]; first compound 0.03162 µM) was 0.612. It also gave a relative viability ([6]; first compound 0.1 µM) of 0.503, a relative viability ([6]; first compound 0.3162 µM) of 0.48 and a relative viability ([6]; first compound 1 µM) of 0.616. For the same compound, the relative viability ([7]; first compound 0.01 µM) was 0.428, the relative viability ([7]; first compound 0.03162 µM) was 0.406 and the relative viability ([7]; first compound 0.1 µM) was 0.44. The relative viability ([7]; first compound 0.3162 µM) was 0.464, the relative viability ([7]; first compound 1 µM) was 0.48 and the relative viability ([8]; first compound 0.01 µM) was 0.386. For the same compound, the relative viability ([8]; first compound 0.03162 µM) was 0.368, the relative viability ([8]; first compound 0.1 µM) was 0.365 and the relative viability ([8]; first compound 0.3162 µM) was 0.429. The relative viability ([8]; first compound 1 µM) was 0.311, the relative viability ([9]; first compound 0.01 µM) was 0.797 and the relative viability ([9]; first compound 0.03162 µM) was 0.789. For the same compound, the relative viability ([9]; first compound 0.1 µM) was 0.693, the relative viability ([9]; first compound 0.3162 µM) was 0.741 and the relative viability ([9]; first compound 1 µM) was 0.827. For the same compound, the relative viability ([10]; first compound 0.03162 µM) was 0.508, the relative viability ([10]; first compound 0.1 µM) was 0.364 and the relative viability ([10]; first compound 0.3162 µM) was 0.544. It also gave a relative viability ([10]; first compound 1 µM) of 0.359, a relative viability ([11]; first compound 0.01 µM) of 0.497 and a relative viability ([11]; first compound 0.03162 µM) of 0.596. It also gave a relative viability ([11]; first compound 0.1 µM) of 0.521, a relative viability ([11]; first compound 0.3162 µM) of 0.516 and a relative viability ([11]; first compound 1 µM) of 0.544. For the same compound, the relative viability ([12]; first compound 0.01 µM) was 0.703, the relative viability ([12]; first compound 0.03162 µM) was 0.72 and the relative viability ([12]; first compound 0.1 µM) was 0.798. For the same compound, the relative viability ([12]; first compound 0.3162 µM) was 0.647, the relative viability ([12]; first compound 1 µM) was 0.741 and the relative viability ([13]; first compound 0.01 µM) was 0.68. It also gave a relative viability ([13]; first compound 0.03162 µM) of 0.773, a relative viability ([13]; first compound 0.1 µM) of 0.957 and a relative viability ([13]; first compound 0.3162 µM) of 0.655. For the same compound, the relative viability ([13]; first compound 1 µM) was 0.75, the relative viability ([14]; first compound 0.01 µM) was 0.771 and the relative viability ([14]; first compound 0.03162 µM) was 0.612. The relative viability ([14]; first compound 0.1 µM) was 0.672, the relative viability ([14]; first compound 0.3162 µM) was 0.76 and the relative viability ([14]; first compound 1 µM) was 0.658. For the same compound, the relative viability ([15]; first compound 0.01 µM) was 0.539, the relative viability ([15]; first compound 0.03162 µM) was 0.4 and the relative viability ([15]; first compound 0.1 µM) was 0.54. The relative viability ([15]; first compound 0.3162 µM) was 0.358, the relative viability ([15]; first compound 1 µM) was 0.5 and the relative viability ([16]; first compound 0.01 µM) was 0.554. It also gave a relative viability ([16]; first compound 0.03162 µM) of 0.775, a relative viability ([16]; first compound 0.1 µM) of 0.58 and a relative viability ([16]; first compound 0.3162 µM) of 0.605. The relative viability ([16]; first compound 1 µM) was 0.685, the relative viability ([17]; first compound 0.01 µM) was 0.676 and the relative viability ([17]; first compound 0.03162 µM) was 0.619. It also gave a relative viability ([17]; first compound 0.1 µM) of 0.75, a relative viability ([17]; first compound 0.3162 µM) of 0.702 and a relative viability ([17]; first compound 1 µM) of 0.689. The relative viability ([18]; first compound 0.01 µM) was 0.764, the relative viability ([18]; first compound 0.03162 µM) was 0.788 and the relative viability ([18]; first compound 0.1 µM) was 0.899. For the same compound, the relative viability ([18]; first compound 0.3162 µM) was 0.911, the relative viability ([18]; first compound 1 µM) was 0.918 and the relative viability ([19]; first compound 0.01 µM) was 0.386. The relative viability ([19]; first compound 0.03162 µM) was 0.362, the relative viability ([19]; first compound 0.1 µM) was 0.339 and the relative viability ([19]; first compound 0.3162 µM) was 0.395. The relative viability ([19]; first compound 1 µM) was 0.371, the relative viability ([20]; first compound 0.01 µM) was 0.79 and the relative viability ([20]; first compound 0.03162 µM) was 0.707. It also gave a relative viability ([20]; first compound 0.1 µM) of 0.751, a relative viability ([20]; first compound 0.3162 µM) of 0.778 and a relative viability ([20]; first compound 1 µM) of 0.733. It also gave a relative viability ([21]; first compound 0.01 µM) of 0.804, a relative viability ([21]; first compound 0.03162 µM) of 0.882 and a relative viability ([21]; first compound 0.1 µM) of 0.697. For the same compound, the relative viability ([21]; first compound 0.3162 µM) was 0.784 and the relative viability ([21]; first compound 1 µM) was 0.824.
